What was measured:
SCD5 = target: T1, SCD5 (Homo sapiens, UniProt Q86SK9); assay: Growth inhibition of humanized yeast strain expressing SCD5 as sole desaturase; format: cell-based; details: humanized yeast strain expressing SCD5
T1 construct: host or cells: S. cerevisiae ole1Δ strain (W303 pdr1Δ pdr3Δ background), plasmid pRS316 with TDH3 promoter and CYC1 terminator
T1 sequence (Q86SK9 1-330): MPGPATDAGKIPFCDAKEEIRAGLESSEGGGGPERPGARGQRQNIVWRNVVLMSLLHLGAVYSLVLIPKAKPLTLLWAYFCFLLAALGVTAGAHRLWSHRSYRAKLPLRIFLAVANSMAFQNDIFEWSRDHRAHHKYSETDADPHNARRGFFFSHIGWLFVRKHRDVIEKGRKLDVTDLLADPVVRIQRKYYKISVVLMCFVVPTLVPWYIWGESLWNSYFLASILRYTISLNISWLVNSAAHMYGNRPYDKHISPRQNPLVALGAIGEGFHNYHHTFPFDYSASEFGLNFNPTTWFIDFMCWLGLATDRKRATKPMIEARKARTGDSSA
How it was run: (§1)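 OD600 growth read-out. ole1Δ yeast, pdr1Δ pdr3Δ, with Ole1/SCD1/SCD5 on a plasmid; SX-Ura media throughout; 2× cell density 0.02 in CSM-Galactose; DMSO compound dilutions; humidified 30° C.; Ole1 stopped at 24 h, SCD1/SCD5 at 40 h.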

[1] = tested on: yeast strains expressing the human α-synuclein; assay: Yeast α-synuclein toxicity rescue assay (OD600 growth); details: 40 h; for EC50: read-out: α-Syn EC50; for Emax: read-out: α-Syn Emax
Ole1 = target: T2, Ole1 (Saccharomyces cerevisiae, UniProt P21147); assay: Growth inhibition of yeast strain expressing Ole1 as sole desaturase; format: cell-based; details: yeast strain expressing Ole1 as sole desaturase
T2 construct: expressed in transfected cells; host or cells: S. cerevisiae ole1Δ strain (W303 pdr1Δ pdr3Δ background), plasmid pRS316 with TDH3 promoter and CYC1 terminator
T2 sequence (P21147 1-510): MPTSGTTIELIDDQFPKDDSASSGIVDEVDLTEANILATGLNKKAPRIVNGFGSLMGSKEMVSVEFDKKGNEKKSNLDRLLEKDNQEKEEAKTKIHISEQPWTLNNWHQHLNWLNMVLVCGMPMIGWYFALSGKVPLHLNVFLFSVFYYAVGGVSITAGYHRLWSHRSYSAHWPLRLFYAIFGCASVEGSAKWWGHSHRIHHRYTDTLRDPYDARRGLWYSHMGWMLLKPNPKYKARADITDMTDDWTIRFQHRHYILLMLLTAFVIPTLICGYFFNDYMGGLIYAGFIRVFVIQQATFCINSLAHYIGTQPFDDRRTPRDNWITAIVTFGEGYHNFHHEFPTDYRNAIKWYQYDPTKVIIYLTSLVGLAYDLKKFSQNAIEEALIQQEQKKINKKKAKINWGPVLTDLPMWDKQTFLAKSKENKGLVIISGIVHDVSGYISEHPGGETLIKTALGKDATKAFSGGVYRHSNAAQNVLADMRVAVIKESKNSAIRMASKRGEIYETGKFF
How it was run: as §1

SCD1 = target: T3, SCD1 (Homo sapiens, UniProt O00767); assay: Growth inhibition of humanized yeast strain expressing SCD1 as sole desaturase; format: cell-based; details: humanized yeast strain expressing SCD1
T3 construct: host or cells: S. cerevisiae ole1Δ strain (W303 pdr1Δ pdr3Δ background), plasmid pRS316 with TDH3 promoter and CYC1 terminator
T3 sequence (O00767 1-359): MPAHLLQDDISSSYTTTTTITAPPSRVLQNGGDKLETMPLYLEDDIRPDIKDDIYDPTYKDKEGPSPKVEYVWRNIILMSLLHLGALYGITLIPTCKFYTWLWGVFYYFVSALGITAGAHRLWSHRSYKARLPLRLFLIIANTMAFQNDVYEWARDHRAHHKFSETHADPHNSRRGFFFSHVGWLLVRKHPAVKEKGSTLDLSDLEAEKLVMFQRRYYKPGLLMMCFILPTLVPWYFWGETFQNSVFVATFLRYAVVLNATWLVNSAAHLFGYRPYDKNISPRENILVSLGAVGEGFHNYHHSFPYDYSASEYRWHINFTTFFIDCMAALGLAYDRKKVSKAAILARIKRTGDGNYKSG
How it was run: as §1

| Structure (SMILES) | IC50 (SCD5) [µM] | SCD5 % Max Inhibition (SCD5) [%] | EC50 [1] [µM] | Emax [1] [%] | IC50 (Ole1) [µM] | OLE1 % Max Inhibition (Ole1) [%] | IC50 (SCD1) [µM] | SCD1 % Max Inhibition (SCD1) [%] |
| --- | --- | --- | --- | --- | --- | --- | --- | --- |
| COc1cccc(C(=O)NCC(=O)N2CCC(c3nc(-c4ccc5c(C)nn(C)c5c4)no3)CC2)n1 [Compound 154] | > 45 | 3.25 | 0.057 | 410 | > 45 | 1.20 | > 45 | 68.90 |
| Cn1c(=O)[nH]c2ccc(-c3noc(C4CCN(C(=O)CN5Cc6ccccc6C5=O)CC4)n3)cc21 [Compound 133] | > 45 | 74.75 | 6.38 | 281 | > 45 | 26.72 | 37.3 | 61.21 |
| COc1ccc(CN2CC(C(=O)N3CCC(c4nc(-c5ccc6c(C)nn(C)c6c5)no4)CC3)CC2=O)c(OC)c1 (stereo not drawn) [Compound 124] | > 45 | 96.23 | 17.7 | 395 | > 45 | 4.55 | > 45 | 88.87 |
| COc1ccccc1C(=O)NCC(=O)N1CCC(c2nc(-c3ccc4c(C)nn(C)c4c3)no2)CC1 [Compound 152] | > 45 | 60.91 | 0.134 | 474 | > 45 | 2.37 | > 45 | 83.39 |
| O=C(NCC(=O)N1CCC(c2nc(-c3ccc4nsnc4c3)no2)CC1)c1ccccc1 [Compound 104] | > 45 | 77.11 | 1.87 | 253 | > 45 | 110.40 | > 45 | 76.89 |
| Cn1c(=O)n(C)c2cc(-c3noc(C4CCN(C(=O)C5CC(=O)N(c6ccccc6)C5)CC4)n3)ccc21 (stereo not drawn) [Compound 123] | > 45 | 9.69 | 0.069 | 343 | > 45 | 3.12 | > 45 | 73.59 |
| Cc1nn(C)c2cc(-c3noc(C4CCN(C(=O)[C@@H]5CN(c6ccccc6)C(=O)O5)CC4)n3)ccc12 [Compound 149] | > 45 | 38.72 | 0.06 | 458 | > 45 | 90.68 | > 45 | 69.75 |
| CCOc1ccc(-c2noc(C3CCN(C(=O)C4CC(=O)N(c5ccccc5)C4)CC3)n2)nc1OC (stereo not drawn) [Compound 108] | > 45 | 64.66 | 11.1 | 316 | > 45 | 72.04 | > 45 | 72.79 |
| CCN1C(=O)COc2cc(-c3noc(C4CCN(C(=O)CNC(=O)c5ccccc5)CC4)n3)ccc21 [Compound 111] | > 45 | 32.73 | 0.339 | 289 | > 45 | 38.26 | > 45 | 76.39 |
| O=C(NCC(=O)N1CCC(c2nc(-c3ccccn3)no2)CC1)c1ccccc1 [compound 78] | > 45 |  | 14.6 | 38 | 38.3 |  | > 45 |  |
| Cc1nn(C)c2cc(-c3noc(C4CCN(C(=O)C(C)N5Cc6ccccc6C5=O)CC4)n3)ccc12 (stereo not drawn) [Compound 141] | > 45 | 78.91 | 0.019 | 259 | > 45 | 1.77 | > 45 | 86.53 |
| Cn1c(=O)[nH]c2ccc(-c3noc(C4CCN(C(=O)C5CC(=O)N(c6ccccc6)C5)CC4)n3)cc21 (stereo not drawn) [Compound 134] | > 45 | 98.55 | 14 | 357 | > 45 | 93.94 | > 45 | 107.77 |

Reference: US11873298B2, “Compounds and uses thereof” (JANSSEN PHARMACEUTICA NV, priority 2017, dated 2024)
